Here are results for three compounds from US10617664B2, “Brain derived PPARα ligands” (Rush University Medical Center, priority 2015, dated 2020).

For assay [1], the system named is NMDA-driven calcium influx. The assay can be described thus: NMDA-driven calcium influx in transduced Ppara-null hippocampal neurons. In kind it is cell-based, mouse. On the procedure: Ppara-null hippocampal neurons were transduced with lentivirions containing GFP (vector), FL-Ppara, and Y464D-Ppara for 48 h followed by treatment with vehicle (DMSO) (FIG. 11A), OCT (FIG. 11B), HEX (FIG. 11C), HMB (FIG. 11D), and WY14643 (FIG. 11E) for 24 h. Then neurons were stained for phalloidin to measure spine density. FIG. 11F) A representative picture of dendrite with spines (Cyan color) used for counting area of spine heads. Area of spine heads (FIG. 11G) and number of spines (FIG. 11H) in 10 μm of dendrites. Results are mean±SEM of 5 neurons per group. ^ap<0.05 vs vector only; ^bp<0.05 vs FL-Ppara. AMPA-driven calcium influx was measured in OCT (red), HEX (green) and HMB (purple)-treated Ppara-null hippocampal neurons transduced with lentivirions containing FL-Ppara (FIG. 11I), Y314D-Ppara (FIG. 11J), Y464D-Ppara (FIG. 11K), and Y314D/Y464D-Ppara (FIG. 11L). All neurons were treated with 50 μM of NMDA receptor antagonist N20C to inhibit passive calcium flow through NMDA receptor. (FIG. 11M-P) Similarly NMDA-driven calcium influx was measured in the lentivius-infected Ppara-null hippocampal neurons in the presence of different endogenous ligands. In these cases, Naspm-HCl was treated to stop the passive flow of calcium currents through AMPA receptor. Results are mean of three independent experiments.

In the next assay the target is T1, PPARα LBD (Homo sapiens, UniProt Q07869).
T1 construct: GST-tagged recombinant PPARα LBD protein; purchased PV4684
T1 sequence (Q07869 239-466 limits assumed): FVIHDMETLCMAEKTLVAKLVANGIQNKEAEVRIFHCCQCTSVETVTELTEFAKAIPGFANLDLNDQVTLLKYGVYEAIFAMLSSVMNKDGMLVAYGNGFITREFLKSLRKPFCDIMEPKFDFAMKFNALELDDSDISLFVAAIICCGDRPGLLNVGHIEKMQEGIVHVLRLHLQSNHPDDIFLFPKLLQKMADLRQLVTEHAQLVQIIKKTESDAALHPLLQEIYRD
The assay can be described thus: TR-FRET PPAR-alpha coactivator assay (Lanthascreen). Format: biochemical. Conditions: curve fit FIG. 13. The protocol: TR-FRET assay was performed using Lanthascreen TR-FRET PPAR-alpha coactivator assay kit (Cat # PV4684). In this assay, different doses of statin drugs were incubated with GST-tagged recombinant PPARα LBD protein, Terbium (Tb)-tagged anti GST antibody and Fluorescein (FL)-tagged PGC1α as directed in the manufacturer's protocol. The entire reaction was set up in corning 384 well plates by an automated robotic injector. Each plate was centrifuged, incubated in a dark place for 30 mins, and then analyzed “molecular devices analyst” machine equipped with dichroic mirror. The excitation wavelength and emission wavelength were set at 340 nm and 540 nm wavelength respectively.

The subject of another assay is NR2A, GluR1 and CREB. The assay can be described thus: Immunoblot and immunofluorescence of synaptic molecules in WT hippocampal neurons. In kind it is cell-based, mouse. The conditions noted are these: 5 μM HEX, 5 μM OCT, 50 μM HMB. The protocol:
(FIG. 17A) Immunoblot analyses followed by densitometric analyses of NR2A (FIG. 17B), GluR1 (FIG. 17C) and CREB (FIG. 17D) were performed in Ppara-null and WT hippocampal neurons treated with 5 μM HEX, 5 μM OCT and 50 μM HMB. Data are mean±SD of three different experiments. ^ap<0.05 versus WT-control. Immunocytochemical analyses of NR2A (FIG. 17E) and GluR1 (FIG. 17F) in WT and Ppara-null hippocampal neurons treated with HEX, OCT and HMB. Hippocampal neurons were transduced with lenti-GFP for 48 h followed by treatment with different ligands. Immunoblot analyses followed by relative densitometric analyses of CREB in Ppara-null hippocampal neurons transduced with lentivirions containing different Ppara constructs followed by treatment with HEX (FIG. 17G-H), OCT (FIG. 17I-J) and HMB (FIG. 17K-L). Bands were scanned and presented as relative to control (FIG. 17H, HEX; FIG. 17J, OCT; FIG. 17L, HMB). Data are mean±SD of three different experiments. ^ap<0.05 vs FLPpara control.
Isolation of Mouse Hippocampal Neurons: Hippocampal neurons were isolated from fetuses (E18) of pregnant female Ppara-null and strain-matched WT littermate mice as described by us^6,13,35-36 with some modifications. Briefly, dissection and isolation procedures were performed in an ice-cold, sucrose buffer solution (sucrose 0.32 M, Tris 0.025 M; pH 7.4)^37. The skin and the skull were carefully removed from the brain by scissors followed by peeling off the meninges by a pair of fine tweezers. Next, a fine incision was made in the middle line around the circle of Willis and medial temporal lobe was opened up. Hippocampus was isolated as a thin slice of tissue located near the cortical edge of medial temporal lobe. Hippocampal tissues isolated from all fetal pups (n>10) were combined together and homogenized with 1 ml of trypsin for 5 minutes at 37° C. followed by neutralization of trypsin. The single cell suspension of hippocampal tissue was plated in the poly-D-lysine pre-coated 75 mm flask. Five min after plating, the supernatants were carefully removed and replaced with complete neurobasal media. The next day, 10 μM AraC was added to remove glial contamination in the neuronal culture. The pure cultures of hippocampal neurons were allowed to differentiate fully for 9-10 days before treatment^35,36,38.
For whole-cell and tissue lysates, samples were homogenized in RIPA buffer containing protease and phosphatase inhibitors (Sigma), passed 10 times through a 26-gauge needle, rotated end over end for 30 min at 4° C., and centrifuged for 10 min at 18,000×g. The supernatant was aliquoted and stored at −80° C. until use. Protein concentrations were determined using a NanoDrop 2000 (Thermo Fisher), and 15-30 μg sample was heat-denatured and resolved on 10% or 12% polyacrylamide-SDS gels, transferred to 0.45 μm nitrocellulose membranes under semidry conditions (15V for 12 min). Membranes were blocked for 1 h with blocking buffer (Li-Cor), incubated with primary antibodies overnight at 4° C. under shaking conditions, washed, incubated with IR-dye-labeled secondary antibodies (1:17,000; Li-Cor) for 45 min at room temperature, washed, and visualized with the Odyssey Infrared Imaging System (Li-Cor). Blots were converted to grayscale and then binary, analyzed using Fiji, and normalized to appropriate loading controls.
(In general: In western blotting, separated proteins are transferred to a membrane and probed.)

In general, EC50 refers to the concentration needed to bring the measured effect to its halfway point. Lower therefore signals an effect from little substance.

With `CCCCCCCCC=CCCCCCCCC(N)=O` [OCT, 9-octadecenamide], the NMDA-mediated calcium influx entry is “stimulated” in assay [1] (lenti-FL-Ppara), “partially restore” in assay [1] (lenti-Y314D-Ppara), “remained unable to increase” in assay [1] (lenti-Y314D/Y464D-Ppara) and “remained unable to increase” in assay [1] (lenti-Y464D-Ppara). For the same compound, at PPARα LBD, the EC50 is 4.31 µM. Besides, the “expression of CREB” value with NR2A, GluR1 and CREB was “upregulated”. Moreover, the “expression of GluR1” value in the assay on NR2A, GluR1 and CREB is recorded as “upregulated”. In addition, in the assay with NR2A, GluR1 and CREB, the “expression of NR2A” value is on record as “upregulated”.

Take `CCCCCCCCCCCCCCCC(N)=O` [HEX, hexadecanamide]: the NMDA-mediated calcium influx result in assay [1] (lenti-FL-Ppara) is listed as “stimulated”; in assay [1] (lenti-Y314D-Ppara), “partially restore”; in assay [1] (lenti-Y314D/Y464D-Ppara) it was “remained unable to increase”; in assay [1] (lenti-Y464D-Ppara), “remained unable to increase”. For the same compound, at PPARα LBD, the half-maximal effective concentration (EC50) came out at 4.36 µM. Also, in the assay on NR2A, GluR1 and CREB, the “expression of CREB” value is “upregulated”. The “expression of GluR1” value with NR2A, GluR1 and CREB was “upregulated”. Moreover, in the assay on NR2A, GluR1 and CREB, the “expression of NR2A” value is reported as “upregulated”.

`CCOC(=O)C(C)(C)C(C)O` (stereo not drawn) [HMB]: the NMDA-mediated calcium influx result is given as “stimulated” in assay [1] (lenti-FL-Ppara), “partially restore” in assay [1] (lenti-Y314D-Ppara), “remained unable to increase” in assay [1] (lenti-Y314D/Y464D-Ppara) and “remained unable to increase” in assay [1] (lenti-Y464D-Ppara). Also, the concentration giving a half-maximal response (EC50) on PPARα LBD was 31.6 µM. In addition, the “expression of CREB” value in the assay on NR2A, GluR1 and CREB is on record as “upregulated”. Also, in the assay on NR2A, GluR1 and CREB, the “expression of GluR1” value was “upregulated”. Moreover, the “expression of NR2A” value with NR2A, GluR1 and CREB is listed as “upregulated”.
